# Structures can show the parent of a compound that is named as a salt.
# Molecular target: T1, h-NK1 receptors (Homo sapiens, UniProt P25103)
# T1 construct: expressed in transfected cells; host or cells: CHO cells (permanent expression), crude cell membranes
# Assay: Evaluation of NK1 antagonist transport efficiency to the central nervous system using a h-NK1 receptor binding assay
# Conditions: 5 min, brain extract of male SD rats 5 min after i.v. injection of test compound, CHO cell membranes expressing h-NK1, read-out: inhibition rate of 125I-BH-Substance P binding to h-NK1 receptors
# Procedure: A. Evaluation of NK1 Antagonist Transport Efficiency to the Cental Nervous System Using a h-NK1 Receptor Binding Assay
# (1) Administration of Test Compound and Extraction of the Compound From Brain
# Male SD rats were given an i.v. injection of a solution containing a test compound (1 mg/kg). 5 Min later the animals were anesthetized by ether, bled and perfused through the aorta ascendens with 20 ml of saline. The brain was rapidly removed, weighed and homogenized in 4 vol. ice-cold distilled water by using Polytoron (KINEMATICA). To extract the test compound, 500 μl of the homogenate, 100 μl of methanol, 500 μl of 0.1 N NaOH and 4 ml of ethyl acetate were mixed by shaking for 10 min at room temperature. The organic phase (2.5 ml) was recovered by centrifugation at 3,000 rpm for 10 min, dried and dissolved in dimethyl sulfoxide.
# (2) h-NK1 Receptor Binding Assay
# (a) Crude CHO Cell Membrane Preparation
# CHO cells permanently expressing h-NK1 receptors were harvested and homogenized with a Dounce homogenizer at 4° C. in a buffer (0.25 M sucrose, 25 mM Tris-HCl (pH 7.4), 10 mM MgCl2, 1 mM EDTA, 5 μg/ml p-APMSF). The homogenate was centrifuged (500×g, 10 min), and the pellet was resuspended in the same buffer, homogenized, and centrifuged. The two supernatants were combined and centrifuged (100,000×g, 1 hour). The crude cell membranes thus isolated were resuspended in a buffer (25 MM Tris-HCl (pH 7.4), 10 mM MgCl2, 1 mM EDTA, 5 μg/ml p-APMSF) and stored at −80° C. until use.
# (b) ^125I-BH-Substance P Binding to the Prepared Membrane
# Cell membranes (6 μg/ml) were incubated with ^125I-BH-Substance P (0.1 nM) with or without the extracted compounds in 0.25 ml of a medium (50 mM Tris-HCl (pH 7.4), 5 mM MnCl2, 20 μg/ml chymrostatin, 40 μg/ml bacitracin, 4 μg/ml leupeptin, 5 μg/ml p-APMSF, 200 μg/ml BSA) at 22° C. for 90 min. At the end of the incubation period, the contents were quickly filtered through a Blue Mat 11740 filter (pretreated with 0.1% polyethylenimine for 3 hours prior to use) by using SKATRON Cell Harvester. The filter was then washed with a washing buffer (50 mM Tris-HCl (pH 7.4), 5 mM MnCl2) . The radioactivity was counted by using an auto gamma counter (Packard RIASTAR 5420A). All data presented are specific binding defined as that displaceable by 3 μM unlabeled Substance P.
# T1 sequence (P25103 whole entry): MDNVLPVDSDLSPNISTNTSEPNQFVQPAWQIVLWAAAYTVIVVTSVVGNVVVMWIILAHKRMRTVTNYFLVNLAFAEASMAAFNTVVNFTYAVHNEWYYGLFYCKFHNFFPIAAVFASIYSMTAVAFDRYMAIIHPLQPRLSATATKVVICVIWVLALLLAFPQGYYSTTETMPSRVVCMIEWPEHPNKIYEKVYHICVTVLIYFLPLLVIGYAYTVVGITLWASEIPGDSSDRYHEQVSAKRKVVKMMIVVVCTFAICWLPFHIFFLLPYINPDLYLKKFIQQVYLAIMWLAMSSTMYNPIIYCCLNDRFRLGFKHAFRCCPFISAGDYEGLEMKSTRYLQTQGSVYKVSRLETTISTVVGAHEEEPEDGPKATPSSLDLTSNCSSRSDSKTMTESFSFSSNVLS
row,inhibition at 1 mg/kg,SMILES
1,> 80%,"O=C(c1cc(C(F)(F)F)cc(C(F)(F)F)c1)N1CCN(CCO)C[C@H]1Cc1ccc(Cl)c(Cl)c1 [Example 47, (2R)-2-(3,4-dichlorobenzyl)-1-[3,5-bis(trifluoromethyl)benzoyl]-4-(2-hydroxyethyl) piperazine hydrochloride]"
2,> 80%,"CC(=O)c1ccc(C(=O)N2CCN(C(=O)c3cc(C(F)(F)F)cc(C(F)(F)F)c3)[C@H](Cc3ccc(C)c(C)c3)C2)cc1 [Example 11, (2R)-4-(4-acetylbenzoyl)-1-[3,5-bis (trifluoromethyl)benzoyl]-2-(3,4-dimethylbenzyl)piperazine]"
3,> 80%,"Cc1ccc(C[C@@H]2CN(CCN3CCCOCC3)CCN2C(=O)c2cc(C(F)(F)F)cc(C(F)(F)F)c2)cc1C [Example 67-(6), (2R)-1-[3,5-Bis(trifluoromethyl)benzoyl]-2-(3,4-dimethylbenzyl)-4-(2-homomorpholinoethyl) piperazine dihydrochloride]"
4,> 80%,"Cc1ccc(C[C@@H]2CN(C/C=C/CNCc3cccnc3)CCN2C(=O)c2cc(C(F)(F)F)cc(C(F)(F)F)c2)cc1C [82-(5), (2R)-1-[3,5-Bis(trifluoromethyl)benzoyl]-2-(3,4-dimethylbenzyl)-4-[(E)-N-(3-pyridylmethyl)-4-amino-2-butenyl]piperazine trihydrochloride]"
5,> 80%,"O=C(c1cc(C(F)(F)F)cc(C(F)(F)F)c1)N1CCN(CCCN2CCSCC2)C[C@H]1Cc1ccc(Cl)c(Cl)c1 [Example 44-(4), (2R)-1-[3,5-Bis(trifluoromethyl)benzoyl]-2-(3,4-dichlorobenzyl) -4-(3-thiomorpholinopropyl) piperazine dihydrochloride]"
6,> 80%,"O=C(c1cc(C(F)(F)F)cc(C(F)(F)F)c1)N1CCN(CCCCN2CCOCC2)C[C@H]1Cc1c[nH]c2ccccc12 [Example 73, (2R)-1-[3,5-bis(trifluoromethyl)benzoyl]-2-(1H-indol-3-ylmethyl)-4-(4-morpholinobutyl) piperazine dihydrochloride]"

# System: not given
# Assay: not given
# Conditions: not given
row,melting point,SMILES
1,145 to 146 °C,"O=C(c1cc(C(F)(F)F)cc(C(F)(F)F)c1)N1CCN(CCCC2(c3ccc(F)cc3)OCCO2)C[C@H]1Cc1c[nH]c2ccccc12 [Example 38, (2R)-4-[4,4-ethylenedioxy-4-(4-fluorophenyl)butyl]-1-[3,5-bis (trifluoromethyl)benzoyl]-2-(1H-indol-3-ylmethyl) piperazine]"
2,163 to 165 °C,Cc1ccc(C[C@@H]2CN(CCCc3cnn(C)c3)CCN2C(=O)c2cc(C(F)(F)F)cc(C(F)(F)F)c2)cc1C.Cl
3,150 °C (dec.),Cl.Cl.O=C(c1cc(C(F)(F)F)cc(C(F)(F)F)c1)N1CCN(CCCN2CC3CCC(CC3)C2)C[C@H]1Cc1ccc(Cl)c(Cl)c1
4,162 to 170 °C,Cc1ccc(C[C@@H]2CN(CC#CCN3CCSCC3)CCN2C(=O)c2cc(C(F)(F)F)cc(C(F)(F)F)c2)cc1C.Cl.Cl
5,195 to 197 °C,COC[C@@H]1CCCN1CC#CCN1CCN(C(=O)c2cc(C(F)(F)F)cc(C(F)(F)F)c2)[C@H](Cc2ccc(C)c(C)c2)C1.Cl.Cl
6,186 to 187.5 °C,"CC(=O)c1cccc(C(=O)N2CCN(C(=O)c3cc(C(F)(F)F)cc(C(F)(F)F)c3)[C@H](Cc3c[nH]c4ccccc34)C2)c1 [Example 16-(1), (2R)-4-(3-Acetylbenzoyl)-1-[3,5-bis(trifluoromethyl)benzoyl]-2-(1H-indol-3-ylmethyl)piperazine]"
7,> 230 °C,Cc1ccc(C[C@@H]2CN(C/C=C/CN3CCSCC3)CCN2C(=O)c2cc(C(F)(F)F)cc(C(F)(F)F)c2)cc1C.Cl.Cl
8,185 °C (dec.),"CN(C)c1ccc(C(=O)CN2CCN(C(=O)c3cc(C(F)(F)F)cc(C(F)(F)F)c3)[C@H](Cc3c[nH]c4ccccc34)C2)cc1 [Example 8, (2R)-1-[3,5-bis (trifluoromethyl)benzoyl]-4-(4-dimethylaminophenylcarbonylmethyl)-2-(1H-indol-3-ylmethyl]piperazine]"
9,195 °C (dec.),Cl.O=C(CN1CCN(C(=O)c2cc(C(F)(F)F)cc(C(F)(F)F)c2)[C@H](Cc2c[nH]c3ccccc23)C1)c1cccc(F)c1
10,165 to 169 °C,Cl.Cl.O=C(c1cc(C(F)(F)F)cc(C(F)(F)F)c1)N1CCN(CC#CCN2CCOCC2)C[C@H]1Cc1c[nH]c2ccccc12
11,265 °C (dec.),Cl.Cl.O=C(c1cc(C(F)(F)F)cc(C(F)(F)F)c1)N1CCN(CCCN2CCOCC2)C[C@H]1Cc1c[nH]c2ccccc12
12,175 to 180 °C,Cc1ccc(C[C@@H]2CN(CC#CCN3CCOC(CF)C3)CCN2C(=O)c2cc(C(F)(F)F)cc(C(F)(F)F)c2)cc1C.Cl.Cl (some centres unmarked)
13,166 °C (dec.),Cc1ccc(C(=O)CN2CCN(C(=O)c3cc(C(F)(F)F)cc(C(F)(F)F)c3)[C@H](Cc3c[nH]c4ccccc34)C2)cc1C.Cl
14,140 to 150 °C,Cc1ccc(C[C@@H]2CN(CC#Cc3cccnc3)CCN2C(=O)c2cc(C(F)(F)F)cc(C(F)(F)F)c2)cc1C.Cl.Cl
15,> 230 °C,Cc1ccc(C[C@@H]2CN(C/C=C/CN3CCOCC3(C)C)CCN2C(=O)c2cc(C(F)(F)F)cc(C(F)(F)F)c2)cc1C.Cl.Cl
16,> 230 °C,Cl.Cl.O=C(c1cc(C(F)(F)F)cc(C(F)(F)F)c1)N1CCN(C/C=C/CN2CCSCC2)C[C@H]1Cc1ccc2ccccc2c1

row,melting point,SMILES
1,175 to 190 °C,Cc1ccc(C[C@@H]2CN(CC#CCN3CCN(C4CCCCC4)CC3)CCN2C(=O)c2cc(C(F)(F)F)cc(C(F)(F)F)c2)cc1C.Cl.Cl.Cl
2,> 200 °C,Cl.Cl.O=C(c1cc(C(F)(F)F)cc(C(F)(F)F)c1)N1CCN(CCCN2CC=CCC2)C[C@H]1Cc1c[nH]c2ccccc12
3,> 200 °C,Cl.Cl.Cl.O=C(c1cc(C(F)(F)F)cc(C(F)(F)F)c1)N1CCN(CCCN2CCC(N3CCCCC3)CC2)C[C@H]1Cc1ccc(Cl)c(Cl)c1
4,140 °C (dec.),Cc1ccc(C[C@@H]2CN(Cc3ccc([N+](=O)[O-])cc3)CCN2C(=O)c2cc(C(F)(F)F)cc(C(F)(F)F)c2)cc1C.Cl.Cl
5,163 to 168 °C,Cc1ccc(C[C@@H]2CN(CCCc3cccnc3)CCN2C(=O)c2cc(C(F)(F)F)cc(C(F)(F)F)c2)cc1C.Cl.Cl
6,173 °C (dec.),Cl.Cl.O=C(c1cc(C(F)(F)F)cc(C(F)(F)F)c1)N1CCN(CC#CCN2CCSCC2)C[C@H]1Cc1ccc(C(F)(F)F)cc1
7,191 °C (dec.),Cl.Cl.O=C(c1cc(C(F)(F)F)cc(C(F)(F)F)c1)N1CCN(CC#CCN2CCSCC2)C[C@H]1Cc1cccc2ccccc12
8,152 to 156 °C,Cl.Cl.O=C(c1cc(C(F)(F)F)cc(C(F)(F)F)c1)N1CCN(CC#CCN2CCSCC2)C[C@H]1Cc1ccc2ccccc2c1
9,190 to 192 °C,"CC(=O)c1ccccc1C(=O)N1CCN(C(=O)c2cc(C(F)(F)F)cc(C(F)(F)F)c2)[C@H](Cc2c[nH]c3ccccc23)C1 [Example 16-(2), (2R)-4-(2-Acetylbenzoyl)-1-[3,5-bis(trifluoromethyl)benzoyl]-2-(1H-indol-3-ylmethyl)piperazine]"
10,270 °C (dec.),Cl.O=C(CN1CCN(C(=O)c2cc(C(F)(F)F)cc(C(F)(F)F)c2)[C@H](Cc2c[nH]c3ccccc23)C1)N1CCN(C2CCCC2)CC1
11,250 °C (dec.),Cl.Cl.Cl.O=C(c1cc(C(F)(F)F)cc(C(F)(F)F)c1)N1CCN(CCCN2CCN(C3CCCCC3)CC2)C[C@H]1Cc1c[nH]c2ccccc12
12,170 to 176 °C,Cl.Cl.O=C(c1cc(C(F)(F)F)cc(C(F)(F)F)c1)N1CCN(CCN2CCOCC2)C[C@H]1Cc1c[nH]c2ccccc12
13,203 °C (dec.),Cc1ccc(C(=O)CN2CCN(C(=O)c3cc(C(F)(F)F)cc(C(F)(F)F)c3)[C@H](Cc3c[nH]c4ccccc34)C2)cc1.Cl
14,140 to 155 °C,COCC1COCCN1CC#CCN1CCN(C(=O)c2cc(C(F)(F)F)cc(C(F)(F)F)c2)[C@H](Cc2ccc(C)c(C)c2)C1.Cl.Cl (some centres unmarked)
15,183 °C (dec.),Cl.O=C(CN1CCN(C(=O)c2cc(C(F)(F)F)cc(C(F)(F)F)c2)[C@H](Cc2c[nH]c3ccccc23)C1)N1CCN(c2ccc(F)cc2)CC1
16,171 °C (dec.),Cl.O=C(CN1CCN(C(=O)c2cc(C(F)(F)F)cc(C(F)(F)F)c2)[C@H](Cc2c[nH]c3ccccc23)C1)c1ccc(F)c(F)c1

# Reference: US20020010182A1, “Piperazine derivatives as tachykinin antagonists” (FUJISAWA PHARMACEUTICAL CO., LTD., priority 1995, published 2002)
